Source: patent US10709699B2, “Pyridone derivative pharmaceutical composition and preparation method thereof” (Jiangsu Hengrui Medicine Co., Ltd., priority 2016, dated 2020)

Key:
Solubility = assay type: physicochemical; conditions: compound A and its salts
[1] = Particle size of the raw material by Malvern laser particle size analyzer (Mastersizer 2000); assay type: physicochemical; conditions: for Particle size d (0.5) of the raw material / Particle size d (0.9) of the raw material: in µm (unit assumed)
Protocol: 2-((2-Fluoro-4-iodophenyl)amino)-1-methyl-4-((6-methylpyridin-3-yl)oxy)-6-oxo-1,6-dihydropyridine-3-carboxamide p-toluenesulfonate (hereinafter referred to as compound A) was screened by an 80 mesh sieve, and micronized by a Mcone jet mill (micronizing pressure: 4 bar, sample introduction pressure: 6 bar), respectively. The particle size was measured directly with a Malvern laser particle size analyzer (Mastersizer 2000).

[2] = raw material micronized by a jet mill (4 bar)
[3] = raw material screened by an 80 mesh sieve

- solubility (Solubility): low
- particle size of the raw material ([1]; raw material micronized by a jet mill): less than 10 μm
- Particle size d (0.5) of the raw material [1, 2]: 2.587
- Particle size d (0.9) of the raw material [1, 2]: 5.494
- Particle size d (0.5) of the raw material [1, 3]: 4.940
- Particle size d (0.9) of the raw material [1, 3]: 14.148
SMILES: Cc1ccc(Oc2cc(=O)n(C)c(Nc3ccc(I)cc3F)c2C(N)=O)cn1.Cc1ccc(S(=O)(=O)O)cc1 [compound A, 2-((2-fluoro-4-iodophenyl)amino)-1-methyl-4-((6-methylpyridin-3-yl)oxy)-6-oxo-1,6-di hydropyridine-3-carboxamide p-toluenesulfonate]
